Key:
Muscarinic receptor M3 = Muscarinic receptor M3 (Homo sapiens, UniProt P20309); assay: Radio-ligand binding assay screen; conditions: cloned receptor; considered inactive
NET = NET (Homo sapiens, UniProt P23975); assay: Radio-ligand binding assay screen; conditions: cloned transporter; considered inactive
Dopamine receptor D2 = Dopamine receptor D2 (Homo sapiens, UniProt P14416); assay: Radio-ligand binding assay screen; conditions: cloned receptor; considered inactive
5-HT1B = 5-HT1B (Homo sapiens, UniProt P28222); assay: Radio-ligand binding assay screen; conditions: cloned receptor; considered inactive
5-HT2C = 5-HT2C (Homo sapiens, UniProt P28335); assay: Radio-ligand binding assay screen; conditions: cloned receptor; considered inactive
Dopamine receptor D5 = Dopamine receptor D5 (Homo sapiens, UniProt P21918); assay: Radio-ligand binding assay screen; conditions: cloned receptor; considered inactive
Muscarinic receptor M2 = Muscarinic receptor M2 (Homo sapiens, UniProt P08172); assay: Radio-ligand binding assay screen; conditions: cloned receptor; considered inactive
α1B adrenoreceptor = α1B adrenoreceptor (Homo sapiens, UniProt P35368); assay: Radio-ligand binding assay screen; conditions: cloned receptor; considered inactive
Histamine receptor H4 = Histamine receptor H4 (Homo sapiens, UniProt Q9H3N8); assay: Radio-ligand binding assay screen; conditions: cloned receptor; considered inactive
5-HT1D = 5-HT1D (Homo sapiens, UniProt P28221); assay: Radio-ligand binding assay screen; conditions: cloned receptor; considered inactive
5-HT7 = 5-HT7 (Homo sapiens, UniProt P34969); assay: Radio-ligand binding assay screen; conditions: cloned receptor; considered inactive
MOR = MOR (Homo sapiens, UniProt P35372); assay: Radio-ligand binding assay screen; conditions: cloned receptor; considered inactive
α2A adrenoreceptor = α2A adrenoreceptor (Homo sapiens, UniProt P08913); assay: Radio-ligand binding assay screen; conditions: cloned receptor; considered inactive
β1 adrenoreceptor = β1 adrenoreceptor (Homo sapiens, UniProt P08588); assay: Radio-ligand binding assay screen; conditions: cloned receptor; considered inactive
5-HT1E = 5-HT1E (Homo sapiens, UniProt P28566); assay: Radio-ligand binding assay screen; conditions: cloned receptor; considered inactive
DAT = DAT (Homo sapiens, UniProt Q01959); assay: Radio-ligand binding assay screen; conditions: cloned transporter; considered inactive
Dopamine receptor D4 = Dopamine receptor D4 (Homo sapiens, UniProt P21917); assay: Radio-ligand binding assay screen; conditions: cloned receptor; considered inactive
Muscarinic receptor MS = Muscarinic receptor MS (Homo sapiens, UniProt P08912); assay: Radio-ligand binding assay screen; conditions: cloned receptor; considered inactive
Histamine receptor H2 = Histamine receptor H2 (Homo sapiens, UniProt P25021); assay: Radio-ligand binding assay screen; conditions: cloned receptor; considered inactive
5-HT5A = 5-HT5A (Homo sapiens, UniProt P47898); assay: Radio-ligand binding assay screen; conditions: cloned receptor; considered inactive
KOR = KOR (Homo sapiens, UniProt P41145); assay: Radio-ligand binding assay screen; conditions: cloned receptor; considered inactive
Dopamine receptor D1 = Dopamine receptor D1 (Homo sapiens, UniProt P21728); assay: Radio-ligand binding assay screen; conditions: cloned receptor; considered inactive
β3 adrenoreceptor = β3 adrenoreceptor (Homo sapiens, UniProt P13945); assay: Radio-ligand binding assay screen; conditions: cloned receptor; considered inactive
Dopamine receptor D3 = Dopamine receptor D3 (Homo sapiens, UniProt P35462); assay: Radio-ligand binding assay screen; conditions: cloned receptor; considered inactive
Histamine receptor H1 = Histamine receptor H1 (Homo sapiens, UniProt P35367); assay: Radio-ligand binding assay screen; conditions: cloned receptor; considered inactive
DOR = DOR (Homo sapiens, UniProt P41143); assay: Radio-ligand binding assay screen; conditions: cloned receptor; considered inactive
Histamine receptor H3 = Histamine receptor H3 (Homo sapiens, UniProt Q9Y5N1); assay: Radio-ligand binding assay screen; conditions: cloned receptor; considered inactive
α1Δ adrenoreceptor = α1Δ adrenoreceptor (Homo sapiens, UniProt P25100); assay: Radio-ligand binding assay screen; conditions: cloned receptor; considered inactive
5-HT3 = 5-HT3 (Homo sapiens, UniProt P46098); assay: Radio-ligand binding assay screen; conditions: cloned receptor; considered inactive
5-HT1A = 5-HT1A (Homo sapiens, UniProt P08908); assay: Radio-ligand binding assay screen; conditions: cloned receptor; considered inactive
SERT = SERT (Homo sapiens, UniProt P31645); assay: Radio-ligand binding assay screen; conditions: cloned transporter; considered inactive
rSigma1 = rSigma1 (Rattus norvegicus, UniProt Q9R0C9); assay: Radio-ligand binding assay screen; conditions: cloned receptor; considered inactive
Muscarinic receptor M4 = Muscarinic receptor M4 (Homo sapiens, UniProt P08173); assay: Radio-ligand binding assay screen; conditions: cloned receptor; considered inactive
rSigma2 = rSigma2 (Rattus norvegicus, UniProt Q5U3Y7); assay: Radio-ligand binding assay screen; conditions: cloned receptor; considered inactive
5-HT2B = 5-HT2B (Homo sapiens, UniProt P41595); assay: Radio-ligand binding assay screen; conditions: cloned receptor; considered inactive
5-HT2A = 5-HT2A (Homo sapiens, UniProt P28223); assay: Radio-ligand binding assay screen; conditions: cloned receptor; considered inactive
Muscarinic receptor M1 = Muscarinic receptor M1 (Homo sapiens, UniProt P11229); assay: Radio-ligand binding assay screen; conditions: cloned receptor; considered inactive
5-HT6 = 5-HT6 (Homo sapiens, UniProt P50406); assay: Radio-ligand binding assay screen; conditions: cloned receptor; considered inactive
α1A adrenoreceptor = α1A adrenoreceptor (Homo sapiens, UniProt P35348); assay: Radio-ligand binding assay screen; conditions: cloned receptor; considered inactive
β2 adrenoreceptor = β2 adrenoreceptor (Homo sapiens, UniProt P07550); assay: Radio-ligand binding assay screen; conditions: cloned receptor; considered inactive
human GABAB receptor [1] = molecular target: T1, human GABAB receptor (Homo sapiens, UniProt Q9UBS5); conditions: concentrations up to 100 μM, racemic mixtures
human GABAB receptor [2] = molecular target: T1, human GABAB receptor; conditions: read-out: GABAB EC50; agonist activity, HEK293/Cre-luc, ± standard error; ref [19]; cited from earlier work

T1 sequence (Q9UBS5 15-961 limits assumed): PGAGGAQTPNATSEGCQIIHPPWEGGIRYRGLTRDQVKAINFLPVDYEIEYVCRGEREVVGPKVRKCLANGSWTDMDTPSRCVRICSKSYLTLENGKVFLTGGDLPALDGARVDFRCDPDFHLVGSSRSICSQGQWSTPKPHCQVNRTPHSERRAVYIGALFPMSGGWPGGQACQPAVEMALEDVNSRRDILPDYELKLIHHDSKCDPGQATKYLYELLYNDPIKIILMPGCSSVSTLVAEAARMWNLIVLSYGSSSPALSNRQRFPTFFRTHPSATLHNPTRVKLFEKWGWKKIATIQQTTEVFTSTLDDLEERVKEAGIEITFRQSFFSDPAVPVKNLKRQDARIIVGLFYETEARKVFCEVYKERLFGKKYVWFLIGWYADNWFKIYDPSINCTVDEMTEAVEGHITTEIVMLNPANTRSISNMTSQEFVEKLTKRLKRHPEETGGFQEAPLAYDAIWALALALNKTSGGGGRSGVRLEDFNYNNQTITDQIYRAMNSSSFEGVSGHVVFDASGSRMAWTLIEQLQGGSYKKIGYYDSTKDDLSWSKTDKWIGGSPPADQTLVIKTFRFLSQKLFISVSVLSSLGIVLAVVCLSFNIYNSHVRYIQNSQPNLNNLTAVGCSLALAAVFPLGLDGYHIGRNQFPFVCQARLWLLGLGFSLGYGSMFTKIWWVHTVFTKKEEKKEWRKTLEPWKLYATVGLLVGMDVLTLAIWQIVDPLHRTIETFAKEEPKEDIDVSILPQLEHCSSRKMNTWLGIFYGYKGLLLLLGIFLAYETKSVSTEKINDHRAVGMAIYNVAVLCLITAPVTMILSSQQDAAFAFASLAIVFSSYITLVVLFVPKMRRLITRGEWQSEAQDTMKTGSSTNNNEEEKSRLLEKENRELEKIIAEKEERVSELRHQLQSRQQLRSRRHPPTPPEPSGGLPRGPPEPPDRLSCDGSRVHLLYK
T1 sequence (O75899 42-941 partner): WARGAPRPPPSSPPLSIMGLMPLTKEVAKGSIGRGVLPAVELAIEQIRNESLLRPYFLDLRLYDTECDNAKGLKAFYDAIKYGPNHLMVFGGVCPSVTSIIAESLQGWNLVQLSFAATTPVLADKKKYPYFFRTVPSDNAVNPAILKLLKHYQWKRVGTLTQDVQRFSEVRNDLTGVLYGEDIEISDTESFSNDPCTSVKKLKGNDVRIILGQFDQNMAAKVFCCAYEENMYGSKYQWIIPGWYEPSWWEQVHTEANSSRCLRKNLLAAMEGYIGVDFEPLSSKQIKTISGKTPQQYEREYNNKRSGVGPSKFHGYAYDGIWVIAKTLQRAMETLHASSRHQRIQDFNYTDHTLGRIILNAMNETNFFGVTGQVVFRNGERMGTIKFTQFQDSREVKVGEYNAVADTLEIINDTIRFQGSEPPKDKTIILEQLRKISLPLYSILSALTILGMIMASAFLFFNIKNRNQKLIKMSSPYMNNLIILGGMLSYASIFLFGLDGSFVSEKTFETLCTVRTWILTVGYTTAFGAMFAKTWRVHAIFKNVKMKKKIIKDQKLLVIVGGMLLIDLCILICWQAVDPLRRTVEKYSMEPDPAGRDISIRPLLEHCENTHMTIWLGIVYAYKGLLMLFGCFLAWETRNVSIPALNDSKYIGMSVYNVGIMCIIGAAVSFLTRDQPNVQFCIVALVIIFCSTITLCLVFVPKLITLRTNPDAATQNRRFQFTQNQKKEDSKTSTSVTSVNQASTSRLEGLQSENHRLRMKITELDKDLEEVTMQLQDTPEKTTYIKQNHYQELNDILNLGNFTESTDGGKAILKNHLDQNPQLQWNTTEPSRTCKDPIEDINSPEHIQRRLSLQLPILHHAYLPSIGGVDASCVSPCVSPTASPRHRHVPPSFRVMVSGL
Chain of 5-HT3 (P46098 24-478): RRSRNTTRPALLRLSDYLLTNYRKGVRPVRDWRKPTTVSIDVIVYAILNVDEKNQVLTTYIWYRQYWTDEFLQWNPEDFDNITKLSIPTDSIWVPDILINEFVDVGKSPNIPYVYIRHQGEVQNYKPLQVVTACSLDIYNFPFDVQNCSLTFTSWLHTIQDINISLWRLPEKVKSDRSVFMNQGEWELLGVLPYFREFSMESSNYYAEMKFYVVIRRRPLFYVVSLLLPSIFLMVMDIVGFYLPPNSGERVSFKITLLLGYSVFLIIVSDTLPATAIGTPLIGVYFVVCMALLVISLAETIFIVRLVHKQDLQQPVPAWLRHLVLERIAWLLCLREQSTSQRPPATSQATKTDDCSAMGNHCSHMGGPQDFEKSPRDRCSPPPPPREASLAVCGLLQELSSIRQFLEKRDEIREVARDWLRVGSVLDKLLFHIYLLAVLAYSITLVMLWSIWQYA
Chain of rSigma1 (Q9R0C9 whole entry): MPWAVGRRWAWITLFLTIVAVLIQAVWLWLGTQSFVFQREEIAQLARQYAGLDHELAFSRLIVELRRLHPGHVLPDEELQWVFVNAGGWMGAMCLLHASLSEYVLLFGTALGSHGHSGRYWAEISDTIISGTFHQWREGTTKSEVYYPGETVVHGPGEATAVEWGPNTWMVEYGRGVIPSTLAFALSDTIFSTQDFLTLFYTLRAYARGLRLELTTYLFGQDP
Chain of Histamine receptor H3 (Q9Y5N1 whole entry): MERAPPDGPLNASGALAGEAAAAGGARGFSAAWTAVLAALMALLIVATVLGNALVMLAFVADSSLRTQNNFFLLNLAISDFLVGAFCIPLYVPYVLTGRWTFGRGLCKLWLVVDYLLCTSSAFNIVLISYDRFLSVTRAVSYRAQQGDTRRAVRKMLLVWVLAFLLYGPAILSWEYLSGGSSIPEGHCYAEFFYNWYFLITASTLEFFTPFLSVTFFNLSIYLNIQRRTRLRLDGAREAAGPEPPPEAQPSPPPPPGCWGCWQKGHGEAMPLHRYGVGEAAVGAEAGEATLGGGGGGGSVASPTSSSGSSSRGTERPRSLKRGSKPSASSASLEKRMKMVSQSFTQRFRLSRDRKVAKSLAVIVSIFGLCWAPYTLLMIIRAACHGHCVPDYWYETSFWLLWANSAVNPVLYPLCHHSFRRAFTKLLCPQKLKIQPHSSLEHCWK
Chain of Muscarinic receptor M2 (P08172 whole entry): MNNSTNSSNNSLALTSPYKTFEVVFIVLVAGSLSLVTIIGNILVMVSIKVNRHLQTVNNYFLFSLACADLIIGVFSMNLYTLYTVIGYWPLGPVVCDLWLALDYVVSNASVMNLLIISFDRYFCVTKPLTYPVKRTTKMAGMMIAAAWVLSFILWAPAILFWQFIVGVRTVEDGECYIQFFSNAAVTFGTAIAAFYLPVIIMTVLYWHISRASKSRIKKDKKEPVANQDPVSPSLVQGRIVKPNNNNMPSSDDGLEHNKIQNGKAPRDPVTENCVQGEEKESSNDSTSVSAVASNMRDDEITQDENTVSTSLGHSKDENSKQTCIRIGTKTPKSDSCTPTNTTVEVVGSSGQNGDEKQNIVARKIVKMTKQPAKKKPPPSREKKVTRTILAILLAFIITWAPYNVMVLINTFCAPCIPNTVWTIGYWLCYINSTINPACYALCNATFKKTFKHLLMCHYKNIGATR
Chain of Muscarinic receptor M4 (P08173 whole entry): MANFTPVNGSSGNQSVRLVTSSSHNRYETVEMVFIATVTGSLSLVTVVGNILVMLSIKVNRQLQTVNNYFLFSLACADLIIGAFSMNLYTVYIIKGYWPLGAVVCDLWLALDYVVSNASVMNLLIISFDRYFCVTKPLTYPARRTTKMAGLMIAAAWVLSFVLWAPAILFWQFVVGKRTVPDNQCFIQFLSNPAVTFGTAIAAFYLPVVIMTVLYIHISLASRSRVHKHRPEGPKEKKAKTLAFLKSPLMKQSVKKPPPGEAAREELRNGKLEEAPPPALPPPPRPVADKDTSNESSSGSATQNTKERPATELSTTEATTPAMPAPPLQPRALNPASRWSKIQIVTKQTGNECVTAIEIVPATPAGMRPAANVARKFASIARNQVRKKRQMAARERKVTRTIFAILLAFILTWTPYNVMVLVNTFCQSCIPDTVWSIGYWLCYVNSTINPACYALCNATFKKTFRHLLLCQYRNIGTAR
Chain of Dopamine receptor D5 (P21918 whole entry): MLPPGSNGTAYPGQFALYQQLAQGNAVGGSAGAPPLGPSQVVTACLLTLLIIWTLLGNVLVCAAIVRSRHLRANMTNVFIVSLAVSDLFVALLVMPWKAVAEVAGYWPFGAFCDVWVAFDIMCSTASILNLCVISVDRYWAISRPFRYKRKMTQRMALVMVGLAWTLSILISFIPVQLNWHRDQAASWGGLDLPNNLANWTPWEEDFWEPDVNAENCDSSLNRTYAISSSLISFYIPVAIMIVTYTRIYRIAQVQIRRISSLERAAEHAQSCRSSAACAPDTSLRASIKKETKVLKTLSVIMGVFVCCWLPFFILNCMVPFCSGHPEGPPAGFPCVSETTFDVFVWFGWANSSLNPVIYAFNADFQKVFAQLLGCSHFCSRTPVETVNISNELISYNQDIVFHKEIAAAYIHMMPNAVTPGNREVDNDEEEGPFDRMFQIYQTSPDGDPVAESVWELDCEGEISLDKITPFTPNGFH
Chain of MOR (P35372 whole entry): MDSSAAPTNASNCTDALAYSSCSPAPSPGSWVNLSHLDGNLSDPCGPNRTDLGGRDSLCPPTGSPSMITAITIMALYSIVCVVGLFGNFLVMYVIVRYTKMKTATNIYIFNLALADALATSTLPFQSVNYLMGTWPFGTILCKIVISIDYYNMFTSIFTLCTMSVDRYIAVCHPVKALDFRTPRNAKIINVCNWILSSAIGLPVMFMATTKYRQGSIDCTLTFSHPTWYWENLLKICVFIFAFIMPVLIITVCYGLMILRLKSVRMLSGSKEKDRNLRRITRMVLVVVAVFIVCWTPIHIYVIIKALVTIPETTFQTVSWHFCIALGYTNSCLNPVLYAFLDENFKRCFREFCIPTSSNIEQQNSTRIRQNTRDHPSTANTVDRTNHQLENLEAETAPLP
Chain of rSigma2 (Q5U3Y7 whole entry): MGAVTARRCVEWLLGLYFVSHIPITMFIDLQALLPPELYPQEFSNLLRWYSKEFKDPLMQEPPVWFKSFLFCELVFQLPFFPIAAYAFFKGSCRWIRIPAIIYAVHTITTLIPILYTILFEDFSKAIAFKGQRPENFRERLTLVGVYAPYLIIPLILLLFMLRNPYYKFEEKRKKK

With `CC(C)(C)OC(=O)NC(c1ccccc1)C(F)(F)C(=O)c1ccc2ccccc2c1` (stereo not drawn) [Compound 11] the “inhibition, M3” value (Muscarinic receptor M3) was “less than 30%”, the “inhibition, NET” value (NET) was “less than 30%” and the “inhibition, D2” value (Dopamine receptor D2) was “less than 30%”. The “inhibition, 5-HT1B” value (5-HT1B) was “less than 30%”, the “inhibition, 5-HT2C” value (5-HT2C) was “less than 30%” and the “inhibition, D5” value (Dopamine receptor D5) was “less than 30%”. For the same molecule, the “inhibition, M2” value (Muscarinic receptor M2) was “less than 30%”, the “inhibition, α1B” value (α1B adrenoreceptor) was “less than 30%” and the “inhibition, H4” value (Histamine receptor H4) was “less than 30%”. For the same molecule, the “inhibition, 5-HT1D” value (5-HT1D) was “less than 30%”, the “inhibition, 5-HT7” value (5-HT7) was “less than 30%” and the “inhibition, MOR” value (MOR) was “less than 30%”. For the same molecule, the “inhibition, α2A” value (α2A adrenoreceptor) was “less than 30%”, the “inhibition, β1” value (β1 adrenoreceptor) was “less than 30%” and the “inhibition, 5-HT1E” value (5-HT1E) was “less than 30%”. The “inhibition, DAT” value (DAT) was “less than 30%”, the “inhibition, D4” value (Dopamine receptor D4) was “less than 30%” and the “inhibition, MS” value (Muscarinic receptor MS) was “less than 30%”. The “inhibition, H2” value (Histamine receptor H2) was “less than 30%”, the “inhibition, 5-HT5A” value (5-HT5A) was “less than 30%” and the “inhibition, KOR” value (KOR) was “less than 30%”. For the same molecule, the “inhibition, D1” value (Dopamine receptor D1) was “less than 30%”, the “inhibition, β3” value (β3 adrenoreceptor) was “less than 30%” and the “inhibition, D3” value (Dopamine receptor D3) was “less than 30%”. The “inhibition, H1” value (Histamine receptor H1) was “less than 30%”, the “inhibition, DOR” value (DOR) was “less than 30%” and the “inhibition, H3” value (Histamine receptor H3) was “less than 30%”. The “inhibition, α1Δ” value (α1Δ adrenoreceptor) was “less than 30%”, the “inhibition, 5-HT3” value (5-HT3) was “less than 30%” and the “inhibition, 5-HT1A” value (5-HT1A) was “less than 30%”. The “inhibition, SERT” value (SERT) was “less than 30%”, the “inhibition, rSigma1” value (rSigma1) was “less than 30%” and the “inhibition, M4” value (Muscarinic receptor M4) was “less than 30%”. The “inhibition, rSigma2” value (rSigma2) was “less than 30%”, the “inhibition, 5-HT2B” value (5-HT2B) was “less than 30%” and the “inhibition, 5-HT2A” value (5-HT2A) was “less than 30%”. For the same molecule, the “inhibition, M1” value (Muscarinic receptor M1) was “less than 30%”, the “inhibition, 5-HT6” value (5-HT6) was “less than 30%” and the “inhibition, α1A” value (α1A adrenoreceptor) was “less than 30%”. The “inhibition, β2” value (β2 adrenoreceptor) was “less than 30%”.

For `O=C(c1ccc(Cl)cc1)C(F)(F)C(NCc1ccccc1)c1ccccc1` (stereo not drawn) [Compound 17], the “Agonist activity at the GABAB receptor (in words)” value (“Agonist activity” for short) (human GABAB receptor [1]) was “moderate activity”.

With `C/C=C/C=C/C(NCc1ccccc1)C(F)(F)C(=O)c1ccc2ccccc2c1` (stereo not drawn) [Compound 16] the “Agonist activity” value (human GABAB receptor [1]) was “inactive”.

For `O=C(C12CC3CC(CC(C3)C1)C2)C(F)(F)C(O)/C=C/c1ccccc1` (stereo not drawn) [Compound 9], the EC50 (human GABAB receptor [2]) is listed as 40 ± 3.59 µM.

With `CC(=O)c1ccc(C(O)C(F)(F)C(=O)C23CC4CC(CC(C4)C2)C3)cc1` (stereo not drawn) [Compound 3] the “inhibition, M3” value (Muscarinic receptor M3) was “less than 30%”, the “inhibition, NET” value (NET) was “less than 30%” and the “inhibition, D2” value (Dopamine receptor D2) was “less than 30%”. For the same molecule, the “inhibition, 5-HT1B” value (5-HT1B) was “less than 30%”, the “inhibition, 5-HT2C” value (5-HT2C) was “less than 30%” and the “inhibition, D5” value (Dopamine receptor D5) was “less than 30%”. The “inhibition, M2” value (Muscarinic receptor M2) was “less than 30%”, the “inhibition, α1B” value (α1B adrenoreceptor) was “less than 30%” and the “inhibition, H4” value (Histamine receptor H4) was “less than 30%”. The “inhibition, 5-HT1D” value (5-HT1D) was “less than 30%”, the “inhibition, 5-HT7” value (5-HT7) was “less than 30%” and the “inhibition, MOR” value (MOR) was “less than 30%”. The “inhibition, α2A” value (α2A adrenoreceptor) was “less than 30%”, the “inhibition, β1” value (β1 adrenoreceptor) was “less than 30%” and the “inhibition, 5-HT1E” value (5-HT1E) was “less than 30%”. For the same molecule, the “inhibition, DAT” value (DAT) was “less than 30%”, the “inhibition, D4” value (Dopamine receptor D4) was “less than 30%” and the “inhibition, MS” value (Muscarinic receptor MS) was “less than 30%”. For the same molecule, the “inhibition, H2” value (Histamine receptor H2) was “less than 30%”, the “inhibition, 5-HT5A” value (5-HT5A) was “less than 30%” and the “inhibition, KOR” value (KOR) was “less than 30%”. For the same molecule, the “inhibition, D1” value (Dopamine receptor D1) was “less than 30%”, the “inhibition, β3” value (β3 adrenoreceptor) was “less than 30%” and the “inhibition, D3” value (Dopamine receptor D3) was “less than 30%”. For the same molecule, the “inhibition, H1” value (Histamine receptor H1) was “less than 30%”, the “inhibition, DOR” value (DOR) was “less than 30%” and the “inhibition, H3” value (Histamine receptor H3) was “less than 30%”. The “inhibition, α1Δ” value (α1Δ adrenoreceptor) was “less than 30%”, the “inhibition, 5-HT3” value (5-HT3) was “less than 30%” and the “inhibition, 5-HT1A” value (5-HT1A) was “less than 30%”. The “inhibition, SERT” value (SERT) was “less than 30%”, the “inhibition, rSigma1” value (rSigma1) was “less than 30%” and the “inhibition, M4” value (Muscarinic receptor M4) was “less than 30%”. For the same molecule, the “inhibition, rSigma2” value (rSigma2) was “less than 30%”, the “inhibition, 5-HT2B” value (5-HT2B) was “less than 30%” and the “inhibition, 5-HT2A” value (5-HT2A) was “less than 30%”. The “inhibition, M1” value (Muscarinic receptor M1) was “less than 30%”, the “inhibition, 5-HT6” value (5-HT6) was “less than 30%” and the “inhibition, α1A” value (α1A adrenoreceptor) was “less than 30%”. The “inhibition, β2” value (β2 adrenoreceptor) was “less than 30%”.

In the case of `CCc1ccc(C(O)C(F)(F)C(=O)C23CC4CC(CC(C4)C2)C3)cc1` (stereo not drawn) [Compound 4], the “Agonist activity” value (human GABAB receptor [1]) is reported as “inactive”.

— PMC6152937 (Bioorganic & medicinal chemistry letters, 2018)
